Measured values published in PubChem BioAssay AID292 (DTP/NCI, 2004).
Where “and” joins values, the source holds several entries; their conditions need not be identical. Identical values can stand only once. Toxic doses and inconclusive results are not listed. The calls were made as follows: active = survival T/C of 150% or more; inactive = T/C below 125% in these data.

Test system: B6C3F1 mice, ip Sarcoma M5076, median survival T/C
Assay: NCI In Vivo Anticancer Drug Screen. Data for tumor model Sarcoma M5076 (intraperitoneal) in B6C3F1 mice
Conditions: endpoint: median survival time, higher = longer survival
Procedure: The antitumor activity of compounds was measured in mice bearing transplantable tumors. Survival or tumor size were measured and the results are expressed as the measurement made in the treated group (T) divided by the measurement made in the vehicle treated control group (C). The tumor model used in this assay is Sarcoma M5076 (intraperitoneal) in B6C3F1 mice

[1] = dose: 50.0 mg/kg/injection, schedule: Q04DX004 (ip), vehicle: Klucel (hydroxypropylcellulose) (HPC)
[2] = dose: 100.0 mg/kg/injection, schedule: Q04DX004 (ip), vehicle: Klucel (hydroxypropylcellulose) (HPC)
[3] = dose: 200.0 mg/kg/injection, schedule: Q04DX004 (ip), vehicle: Klucel (hydroxypropylcellulose) (HPC)
[4] = dose: 400.0 mg/kg/injection, schedule: Q04DX004 (ip), vehicle: Klucel (hydroxypropylcellulose) (HPC)
[5] = dose: 75.0 mg/kg/injection, schedule: Q04DX004 (ip), vehicle: saline with Tween-80
[6] = dose: 150.0 mg/kg/injection, schedule: Q04DX004 (ip), vehicle: saline with Tween-80
[7] = dose: 25.0 mg/kg/injection, schedule: Q04DX004 (ip), vehicle: saline with Tween-80
[8] = dose: 50.0 mg/kg/injection, schedule: Q04DX004 (ip), vehicle: saline with Tween-80
[9] = dose: 100.0 mg/kg/injection, schedule: Q04DX004 (ip), vehicle: saline with Tween-80
[10] = dose: 200.0 mg/kg/injection, schedule: Q04DX004 (ip), vehicle: saline with Tween-80
[11] = dose: 400.0 mg/kg/injection, schedule: Q04DX004 (ip), vehicle: saline with Tween-80
[12] = dose: 50.0 mg/kg/injection, schedule: Q04DX004 (ip), vehicle: saline
[13] = dose: 12.5 mg/kg/injection, schedule: Q04DX004 (ip), vehicle: saline with Tween-80
[14] = dose: 37.5 mg/kg/injection, schedule: Q04DX004 (ip), vehicle: saline with Tween-80
[15] = dose: 300.0 mg/kg/injection, schedule: Q04DX004 (ip), vehicle: saline with Tween-80

Measured: T/C

CN(C)CCNC1=C(Cl)C(=O)c2ccccc2C1=O
inactive: dose: 1.5 mg/kg/injection, schedule: Q04DX004 (ip), vehicle: saline 91 % of control | dose: 3.0 mg/kg/injection, schedule: Q04DX004 (ip), vehicle: saline 98 % of control | dose: 6.0 mg/kg/injection, schedule: Q04DX004 (ip), vehicle: saline 89 % of control | dose: 12.0 mg/kg/injection, schedule: Q04DX004 (ip), vehicle: saline 105 % of control | dose: 12.5 mg/kg/injection, schedule: Q04DX004 (ip), vehicle: saline 106 % of control

CCOC(=O)/C=C1/SC(N2CCCCC2)C(=O)N1CC (stereo not drawn)
inactive: [1] 96 % of control | [2] 96 % of control | [3] 97 % of control | [4] 94 % of control

COc1ccc(Cl)c2c1[nH]c1nc3nc4cc(Cl)ccc4n3nc12
inactive: [5] 91 % of control | [6] 90 % of control

O=C1C(=O)C(CN2CCOCC2)=C(N2CCOCC2)C(N2CCOCC2)=C1CN1CCOCC1
inactive: [7] 96 % of control | [8] 101 % of control | [9] 94 % of control | [10] 88 % of control | [11] 92 % of control

COc1ccccc1-n1cc[n+](C)c1/C=N/O
inactive: dose: 25.0 mg/kg/injection, schedule: Q04DX004 (ip), vehicle: saline 101 % of control | [12] 101 % of control

Cc1ccc(C(=O)[O][Hg][CH2]C2COC([CH2][Hg][O]C(=O)c3ccc(C)cc3)CO2)cc1 (stereo not drawn)
inactive: dose: 6.25 mg/kg/injection, schedule: Q04DX004 (ip), vehicle: saline with Tween-80 99 % of control | [13] 88 % of control | [7] 88 % of control

O=C(O)CC(Sc1ccc(Cl)cc1)C(=O)Nc1ccccc1 (stereo not drawn)
inactive: dose: 31.25 mg/kg/injection, schedule: Q04DX004 (ip), vehicle: saline with Tween-80 99 % of control | dose: 62.5 mg/kg/injection, schedule: Q04DX004 (ip), vehicle: saline with Tween-80 102 % of control | dose: 125.0 mg/kg/injection, schedule: Q04DX004 (ip), vehicle: saline with Tween-80 90 % of control | dose: 500.0 mg/kg/injection, schedule: Q04DX004 (ip), vehicle: saline with Tween-80 94 % of control

CC(=O)C1C(=O)C(=O)N(c2ccc(Cl)cc2)C1=O (stereo not drawn)
inactive: [1] 111 % of control | [2] 103 % of control | [3] 99 % of control | [4] 93 % of control | dose: 800.0 mg/kg/injection, schedule: Q04DX004 (ip), vehicle: Klucel (hydroxypropylcellulose) (HPC) 92 % of control

COc1cccc(C2C(C#N)C(=O)NC(=O)C2C#N)c1 (stereo not drawn)
inactive: [1] 99 % of control | [2] 102 % of control | [3] 98 % of control | [4] 95 % of control

CC1(C)C2CCC(C2)C1/C=C1/SC(=S)NC1=O (stereo not drawn)
inactive: dose: 25.0 mg/kg/injection, schedule: Q04DX004 (ip), vehicle: Klucel (hydroxypropylcellulose) (HPC) 95 % of control | [1] 98 % of control | [2] 90 % of control | [3] 91 % of control | [4] 87 % of control

CCn1c2ccccc2c2cc(N)c(N=Nc3ccc(N(C)C)cc3)cc21
inactive: dose: 32.82 mg/kg/injection, schedule: Q04DX004 (ip), vehicle: Klucel (hydroxypropylcellulose) (HPC) 111 % of control | dose: 65.63 mg/kg/injection, schedule: Q04DX004 (ip), vehicle: Klucel (hydroxypropylcellulose) (HPC) 93 % of control | dose: 131.25 mg/kg/injection, schedule: Q04DX004 (ip), vehicle: Klucel (hydroxypropylcellulose) (HPC) 97 % of control | dose: 262.5 mg/kg/injection, schedule: Q04DX004 (ip), vehicle: Klucel (hydroxypropylcellulose) (HPC) 93 % of control | dose: 525.0 mg/kg/injection, schedule: Q04DX004 (ip), vehicle: Klucel (hydroxypropylcellulose) (HPC) 90 % of control

Cc1nc2c(cnn2C)cc1CCc1ccccc1
inactive: dose: 18.75 mg/kg/injection, schedule: Q04DX004 (ip), vehicle: saline with Tween-80 99 % of control | [14] 101 % of control | [5] 99 % of control | [6] 99 % of control | [15] 90 % of control

Cn1cnc([N+](=O)[O-])c1SCC(=O)O
inactive: dose: 75.0 mg/kg/injection, schedule: Q04DX004 (ip), vehicle: Klucel (hydroxypropylcellulose) (HPC) 92 % of control | dose: 150.0 mg/kg/injection, schedule: Q04DX004 (ip), vehicle: Klucel (hydroxypropylcellulose) (HPC) 101 % of control | dose: 300.0 mg/kg/injection, schedule: Q04DX004 (ip), vehicle: Klucel (hydroxypropylcellulose) (HPC) 98 % of control | dose: 600.0 mg/kg/injection, schedule: Q04DX004 (ip), vehicle: Klucel (hydroxypropylcellulose) (HPC) 93 % of control | dose: 1200.0 mg/kg/injection, schedule: Q04DX004 (ip), vehicle: Klucel (hydroxypropylcellulose) (HPC) 92 % of control

COc1cc2c(c3c1c(=O)c1ccccc1n3C)C=CC(C)(C)O2
inactive: [13] 112 % of control | [7] 121 % of control | dose: 166.7 mg/kg/injection, schedule: Q04DX004 (ip), vehicle: saline with Tween-80 110 % of control

CC(=O)c1cccc(NC2C(N)C(NC(=O)N(C)C)(C(C)O)C(C)(O)C2(O)COC(=O)c2c(C)cccc2O)c1 (stereo not drawn)
inactive: dose: 2.5 mg/kg/injection, schedule: Q04DX004 (ip), vehicle: saline 112 % of control and 114 % of control | dose: 5.0 mg/kg/injection, schedule: Q04DX004 (ip), vehicle: saline 105 % of control and 115 % of control | dose: 10.0 mg/kg/injection, schedule: Q04DX004 (ip), vehicle: saline 117 % of control and 120 % of control | dose: 20.0 mg/kg/injection, schedule: Q04DX004 (ip), vehicle: saline 115 % of control

NCCNCC(O)CO (stereo not drawn)
inactive: [12] 99 % of control | dose: 100.0 mg/kg/injection, schedule: Q04DX004 (ip), vehicle: saline 103 % of control | dose: 200.0 mg/kg/injection, schedule: Q04DX004 (ip), vehicle: saline 103 % of control | dose: 400.0 mg/kg/injection, schedule: Q04DX004 (ip), vehicle: saline 99 % of control | dose: 800.0 mg/kg/injection, schedule: Q04DX004 (ip), vehicle: saline 95 % of control

Nc1ccc2c(c1)C1(CCC2)NC(=O)NC1=O (stereo not drawn)
inactive: [8] 97 % of control | [9] 96 % of control | [10] 98 % of control | [11] 98 % of control

C[n+]1c(-c2ccc(/C=N/NC(=O)c3ccc(C(=O)N/N=C/c4ccc(-c5cn6ccccc6[n+]5C)cc4)cc3)cc2)cn2ccccc21
inactive: [8] 104 % of control | [9] 98 % of control | [10] 108 % of control | [11] 115 % of control | dose: 800.0 mg/kg/injection, schedule: Q04DX004 (ip), vehicle: saline with Tween-80 112 % of control

COC(=O)[C@@]12OC[C@]34[C@H]([C@@H](O)[C@@H]1O)[C@@]1(C)CC(=O)C(O)=C(C)[C@@H]1C[C@H]3OC(=O)[C@H](OC(=O)/C=C(\C)C(C)C)[C@@H]24
inactive: dose: 0.12 mg/kg/injection, schedule: Q04DX005 (ip), vehicle: saline 97 % of control and 101 % of control | dose: 0.13 mg/kg/injection, schedule: Q04DX004 (ip), vehicle: saline 97 % of control and 112 % of control and 124 % of control | dose: 0.13 mg/kg/injection, schedule: Q04DX005 (ip), vehicle: saline 117 % of control and 122 % of control

Nc1nc(=O)nc2[nH]c3c4cccc5cccc(c3nc12)c54
inactive: [14] 101 % of control | [5] 95 % of control | [6] 98 % of control | [15] 90 % of control | dose: 600.0 mg/kg/injection, schedule: Q04DX004 (ip), vehicle: saline with Tween-80 94 % of control
